Calls of active or inactive are those of the source. The calls are words filed in the database; no cut-off is given here.
Legend:
A549 [1] = experiment: Reduction in intracellular GSH level in human A549 cells by measuring decrease in fluorescence signal at 10 uM incubated for 10 mins in presence of GSH scavenger NEM by fluorescence microscopic analysis; format: functional, cell-based
[2] = target: T1, von Hippel-Lindau disease tumor suppressor/SWI/SNF-related matrix-associated actin-dependent regulator of chromatin subfamily A member 2 (Homo sapiens) (UniProt P51531+P40337); experiment: PROTAC activity at VHL/SMARCA2 in human A549 cells assessed as induction of SMARCA2 degradation at 1 uM pretreated with 2-(4-(3-Amino-6-(2-hydroxyphenyl)pyridazin-4-yl)piperazin-1-yl) acetic acid trifluoroacetate followed by compound addition and measured after 8 hrs by Western blotting analysis; format: cell-based
T1 sequence (P40337 whole entry, looked up): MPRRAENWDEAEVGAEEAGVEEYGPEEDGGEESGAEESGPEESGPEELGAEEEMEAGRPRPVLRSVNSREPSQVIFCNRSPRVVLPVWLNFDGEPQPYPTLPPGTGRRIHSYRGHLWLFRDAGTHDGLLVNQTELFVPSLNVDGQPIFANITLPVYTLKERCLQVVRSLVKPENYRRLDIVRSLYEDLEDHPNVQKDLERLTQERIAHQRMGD
T1 sequence (P51531 whole entry, looked up): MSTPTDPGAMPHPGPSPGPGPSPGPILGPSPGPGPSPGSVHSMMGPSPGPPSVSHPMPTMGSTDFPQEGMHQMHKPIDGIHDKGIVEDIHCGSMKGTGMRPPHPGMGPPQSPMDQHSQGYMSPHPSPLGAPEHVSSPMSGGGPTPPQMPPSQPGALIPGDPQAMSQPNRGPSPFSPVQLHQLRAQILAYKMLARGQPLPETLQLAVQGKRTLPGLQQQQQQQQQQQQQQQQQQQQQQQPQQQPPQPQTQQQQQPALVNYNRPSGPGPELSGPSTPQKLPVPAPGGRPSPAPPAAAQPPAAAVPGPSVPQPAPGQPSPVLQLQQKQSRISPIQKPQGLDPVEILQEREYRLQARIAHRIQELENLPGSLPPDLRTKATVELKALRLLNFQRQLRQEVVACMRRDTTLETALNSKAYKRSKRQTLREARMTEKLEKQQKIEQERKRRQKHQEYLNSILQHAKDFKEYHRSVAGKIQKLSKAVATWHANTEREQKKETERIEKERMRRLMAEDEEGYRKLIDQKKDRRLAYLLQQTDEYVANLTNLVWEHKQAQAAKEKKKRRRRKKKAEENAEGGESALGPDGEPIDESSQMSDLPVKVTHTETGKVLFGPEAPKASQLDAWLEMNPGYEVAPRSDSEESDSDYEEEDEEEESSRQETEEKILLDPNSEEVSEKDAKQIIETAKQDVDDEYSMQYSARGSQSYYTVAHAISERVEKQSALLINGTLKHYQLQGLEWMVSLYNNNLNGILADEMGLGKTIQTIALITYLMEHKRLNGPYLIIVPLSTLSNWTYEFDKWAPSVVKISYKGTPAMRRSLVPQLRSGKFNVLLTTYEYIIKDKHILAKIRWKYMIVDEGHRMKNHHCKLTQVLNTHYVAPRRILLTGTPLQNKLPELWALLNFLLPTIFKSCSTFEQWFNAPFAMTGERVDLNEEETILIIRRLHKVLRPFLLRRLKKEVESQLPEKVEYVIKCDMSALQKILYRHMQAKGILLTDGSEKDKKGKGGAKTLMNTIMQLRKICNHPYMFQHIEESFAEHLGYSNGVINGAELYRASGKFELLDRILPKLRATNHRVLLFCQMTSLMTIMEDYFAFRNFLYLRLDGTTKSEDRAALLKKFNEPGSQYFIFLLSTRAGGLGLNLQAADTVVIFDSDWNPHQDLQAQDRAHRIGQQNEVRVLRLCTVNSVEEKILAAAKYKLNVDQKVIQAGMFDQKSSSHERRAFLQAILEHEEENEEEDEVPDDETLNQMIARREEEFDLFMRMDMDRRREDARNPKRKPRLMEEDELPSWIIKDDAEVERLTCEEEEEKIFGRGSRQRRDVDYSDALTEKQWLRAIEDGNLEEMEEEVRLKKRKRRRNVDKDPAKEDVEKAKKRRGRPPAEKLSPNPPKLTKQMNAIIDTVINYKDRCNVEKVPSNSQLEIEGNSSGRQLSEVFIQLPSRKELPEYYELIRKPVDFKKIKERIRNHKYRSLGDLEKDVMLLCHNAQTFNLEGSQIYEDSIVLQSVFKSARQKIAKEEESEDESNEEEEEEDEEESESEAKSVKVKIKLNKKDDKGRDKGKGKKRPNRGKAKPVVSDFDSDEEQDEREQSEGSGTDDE

A549 [3] = experiment: Antitumor activity against human A549 cells xenografted in BALB/c mouse assessed as reduction in tumor size at 80 mg/kg,IT(Intratumoral) administrated every four days for 16 days; format: functional, organism-based; settings: time 16.0 day
A549 [4] = experiment: Antitumor activity against human A549 cells xenografted in BALB/c mouse assessed as reduction in tumor weight at 80 mg/kg,IT(Intratumoral) administrated every four days for 16 days; format: functional, organism-based; settings: time 16.0 day
A549 [5] = experiment: Cytotoxicity against human A549 cells assessed as inhibition of cell growth incubated for 3 days by MTT assay; format: functional, cell-based; settings: A549, 72 h
A549 [6] = experiment: Antitumor activity against human A549 cells xenografted in BALB/c mouse assessed as upregulation of gamma-H2AX expression at 80 mg/kg,IT(Intratumoral) administrated every four days for 16 days by immunohistochemistry analysis; format: functional, organism-based; settings: time 16.0 day
A549 [7] = experiment: Antitumor activity against human A549 cells xenografted in BALB/c mouse assessed as reduction in tumor volume at 80 mg/kg,IT(Intratumoral) administrated every four days for 16 days; format: functional, organism-based; settings: time 16.0 day
[8] = target: T1, von Hippel-Lindau disease tumor suppressor/SWI/SNF-related matrix-associated actin-dependent regulator of chromatin subfamily A member 2 (Homo sapiens); experiment: PROTAC activity at VHL/SMARCA2 in human HEK-293T cells assessed as induction of SMARCA2 degradation at 1 uM incubated for 24 hrs by Western blotting analysis relative to control; format: cell-based
A549 [9] = experiment: Antitumor activity against human A549 cells xenografted in BALB/c mouse assessed as downregulation of SMARCA2 expression at 80 mg/kg,IT(Intratumoral) administrated every four days for 16 days by immunohistochemistry analysis; format: functional, organism-based; settings: time 16.0 day
[10] = Toxicity in BALB/c mouse xenografted with human A549 cells assessed as morphological change in heart at 80 mg/kg,IT(Intratumoral) administrated every four days for 16 days by hematoxylin and eosin staining based microscopic analysis; format: organism-based; settings: in vivo, other, 384 h, time 16 day
HuLEC-5a [11] = experiment: Inhibition of colony formation in human HuLEC-5a cells assessed as reduction in colony number at 0.8 to 20 uM incubated for 13 days by crystal violet staining based analysis; format: functional, cell-based; settings: dose 0.8-20 µM, time 13.0 day
[12] = Stability of the compound in cell culture medium containing 10% fetal bovine serum at 50 uM incubated for 72 hrs by HPLC analysis; format: physicochemical, cell-free; settings: cattle
A549 [13] = experiment: Antitumor activity against human A549 cells xenografted in BALB/c mouse assessed as upregulation of cleaved caspase-3 expression at 80 mg/kg,IT(Intratumoral) administrated every four days for 16 days by immunohistochemistry analysis; format: functional, organism-based; settings: time 16.0 day
HuLEC-5a [14] = experiment: Inhibition of colony formation in human HuLEC-5a cells assessed as reduction in colony size at 0.8 to 20 uM incubated for 13 days by crystal violet staining based analysis; format: functional, cell-based; settings: dose 0.8-20 µM, time 13.0 day
[15] = target: T1, von Hippel-Lindau disease tumor suppressor/SWI/SNF-related matrix-associated actin-dependent regulator of chromatin subfamily A member 2 (Homo sapiens); experiment: PROTAC activity at VHL/SMARCA2 in human 786-0 cells harboring mutated VHL assessed as induction of SMARCA2 degradation at 0.1 to 5 uM incubated for 8 hrs by Western blotting analysis; format: cell-based; settings: dose 0.1-5 µM
[16] = Toxicity in BALB/c mouse xenografted with human A549 cells assessed as change in body weight at 80 mg/kg,IT(Intratumoral) administrated every four days for 16 days; format: organism-based; settings: in vivo, other, 384 h, time 16 day
[17] = Toxicity in BALB/c mouse xenografted with human A549 cells assessed as morphological change in liver at 80 mg/kg,IT(Intratumoral) administrated every four days for 16 days by hematoxylin and eosin staining based microscopic analysis; format: organism-based; settings: in vivo, other, 384 h, time 16 day
[18] = target: T2, von Hippel-Lindau disease tumor suppressor/SWI/SNF-related matrix-associated actin-dependent regulator of chromatin subfamily A member 4 (Homo sapiens) (UniProt P51532+P40337); experiment: PROTAC activity at VHL/SMARCA4 in human HEK-293T cells assessed as induction of SMARCA4 degradation at 1 uM incubated for 24 hrs by Western blotting analysis relative to control; format: cell-based
T2 sequence (P40337 whole entry, looked up): as the sequence (P40337 whole entry, looked up) above
T2 sequence (P51532 whole entry, looked up): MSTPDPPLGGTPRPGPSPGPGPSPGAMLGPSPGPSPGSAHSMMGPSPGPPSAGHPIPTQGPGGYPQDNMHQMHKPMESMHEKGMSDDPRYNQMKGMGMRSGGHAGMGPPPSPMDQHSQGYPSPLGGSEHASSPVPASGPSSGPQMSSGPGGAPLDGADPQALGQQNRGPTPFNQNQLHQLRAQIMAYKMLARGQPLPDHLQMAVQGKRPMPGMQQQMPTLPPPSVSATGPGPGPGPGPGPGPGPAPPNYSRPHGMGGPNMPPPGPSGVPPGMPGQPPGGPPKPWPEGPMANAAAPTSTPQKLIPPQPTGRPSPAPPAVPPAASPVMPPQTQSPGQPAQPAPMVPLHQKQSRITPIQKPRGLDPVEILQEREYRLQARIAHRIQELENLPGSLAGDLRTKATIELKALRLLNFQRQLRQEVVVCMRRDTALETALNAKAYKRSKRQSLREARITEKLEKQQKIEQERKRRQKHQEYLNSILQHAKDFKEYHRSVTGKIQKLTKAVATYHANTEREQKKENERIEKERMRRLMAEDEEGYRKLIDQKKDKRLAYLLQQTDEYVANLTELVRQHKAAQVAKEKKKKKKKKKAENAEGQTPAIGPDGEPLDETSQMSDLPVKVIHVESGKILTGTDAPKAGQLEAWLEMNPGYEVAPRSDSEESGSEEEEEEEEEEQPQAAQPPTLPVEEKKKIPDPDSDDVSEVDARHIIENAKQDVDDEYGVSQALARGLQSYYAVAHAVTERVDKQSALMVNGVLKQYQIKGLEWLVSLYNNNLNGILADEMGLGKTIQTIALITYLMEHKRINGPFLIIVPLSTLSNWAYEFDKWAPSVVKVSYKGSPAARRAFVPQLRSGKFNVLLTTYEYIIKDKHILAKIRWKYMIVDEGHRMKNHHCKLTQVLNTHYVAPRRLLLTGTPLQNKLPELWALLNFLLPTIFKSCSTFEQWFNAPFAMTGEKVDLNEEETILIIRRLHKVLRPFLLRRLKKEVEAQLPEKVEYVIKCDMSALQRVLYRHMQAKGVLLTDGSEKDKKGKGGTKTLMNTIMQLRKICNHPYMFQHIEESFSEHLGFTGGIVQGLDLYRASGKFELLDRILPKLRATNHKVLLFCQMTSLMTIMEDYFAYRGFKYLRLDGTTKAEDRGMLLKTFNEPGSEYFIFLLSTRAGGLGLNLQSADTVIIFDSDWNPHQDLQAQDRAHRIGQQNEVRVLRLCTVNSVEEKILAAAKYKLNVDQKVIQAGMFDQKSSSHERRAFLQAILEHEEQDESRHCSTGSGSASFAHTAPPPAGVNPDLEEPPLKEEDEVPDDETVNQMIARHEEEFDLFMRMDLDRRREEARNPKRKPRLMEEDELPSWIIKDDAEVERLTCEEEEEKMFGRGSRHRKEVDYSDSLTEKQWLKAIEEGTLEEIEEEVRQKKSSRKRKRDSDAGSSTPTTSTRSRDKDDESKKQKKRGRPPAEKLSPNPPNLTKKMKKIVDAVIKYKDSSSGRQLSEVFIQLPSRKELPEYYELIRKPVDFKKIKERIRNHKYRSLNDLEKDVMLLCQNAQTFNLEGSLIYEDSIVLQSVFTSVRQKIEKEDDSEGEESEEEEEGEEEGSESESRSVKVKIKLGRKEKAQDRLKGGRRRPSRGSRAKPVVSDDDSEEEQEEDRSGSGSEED

[19] = target: T1, von Hippel-Lindau disease tumor suppressor/SWI/SNF-related matrix-associated actin-dependent regulator of chromatin subfamily A member 2 (Homo sapiens); experiment: PROTAC activity at VHL/SMARCA2 in human A549 cells harboring shRNA mediated VHL knockdown assessed as induction of SMARCA2 degradation at 0.1 to 2 uM incubated for 8 hrs by Western blotting analysis; format: cell-based; settings: dose 0.1-2 µM
A549 [20] = experiment: Inhibition of colony formation in human A549 cells assessed as reduction in colony number at 0.8 to 20 uM incubated for 13 days by crystal violet staining based analysis; format: functional, cell-based; settings: dose 0.8-20 µM, time 13.0 day
[21] = target: T1, von Hippel-Lindau disease tumor suppressor/SWI/SNF-related matrix-associated actin-dependent regulator of chromatin subfamily A member 2 (Homo sapiens); experiment: PROTAC activity at VHL/SMARCA2 in human A549 cells assessed as induction of SMARCA2 degradation at 1 uM pretreated with VHL-ligand followed by compound addition and measured after 8 hrs by Western blotting analysis; format: cell-based
A549 [22] = experiment: Antitumor activity against human A549 cells xenografted in BALB/c mouse assessed as downregulation of SMARCA2 expression at 80 mg/kg,IT(Intratumoral) administrated every four days for 16 days by Western blotting analysis; format: functional, organism-based; settings: time 16.0 day
A549 [23] = experiment: Antitumor activity against human A549 cells xenografted in BALB/c mouse assessed as upregulation of cleaved caspase-3 expression at 80 mg/kg,IT(Intratumoral) administrated every four days for 16 days by Western blotting analysis; format: functional, organism-based; settings: time 16.0 day
[24] = target: T1, von Hippel-Lindau disease tumor suppressor/SWI/SNF-related matrix-associated actin-dependent regulator of chromatin subfamily A member 2 (Homo sapiens); experiment: PROTAC activity at VHL/SMARCA2 in human A549 cells assessed as induction of SMARCA2 degradation at 1 uM pretreated with MG132 followed by compound addition and measured after 8 hrs by Western blotting analysis; format: cell-based
[25] = target: T2, von Hippel-Lindau disease tumor suppressor/SWI/SNF-related matrix-associated actin-dependent regulator of chromatin subfamily A member 4 (Homo sapiens); experiment: PROTAC activity at VHL/SMARCA4 in human 786-0 cells harboring mutated VHL assessed as induction of SMARCA4 degradation at 0.1 to 5 uM incubated for 8 hrs by Western blotting analysis; format: cell-based; settings: dose 0.1-5 µM
[26] = Toxicity in BALB/c mouse xenografted with human A549 cells assessed as morphological change in spleen at 80 mg/kg,IT(Intratumoral) administrated every four days for 16 days by hematoxylin and eosin staining based microscopic analysis; format: organism-based; settings: in vivo, other, 384 h, time 16 day
NCI-H1299 = experiment: Cytotoxicity against human NCI-H1299 cells assessed as inhibition of cell growth incubated for 3 days by MTT assay; format: functional, cell-based; settings: NCI-H1299, 72 h
A549 [27] = experiment: Inhibition of colony formation in human A549 cells assessed as reduction in colony size at 0.8 to 20 uM incubated for 13 days by crystal violet staining based analysis; format: functional, cell-based; settings: dose 0.8-20 µM, time 13.0 day
[28] = Toxicity in BALB/c mouse xenografted with human A549 cells assessed as morphological change in kidney at 80 mg/kg,IT(Intratumoral) administrated every four days for 16 days by hematoxylin and eosin staining based microscopic analysis; format: organism-based; settings: in vivo, other, 384 h, time 16 day
A549 [29] = experiment: Inhibition of cell migration in human A549 cells at 10 uM incubated for 36 hrs by scratch wound healing based fluorescent microscopic analysis; format: functional
[30] = target: T1, von Hippel-Lindau disease tumor suppressor/SWI/SNF-related matrix-associated actin-dependent regulator of chromatin subfamily A member 2 (Homo sapiens); experiment: PROTAC activity at VHL/SMARCA2 in human NCI-H1299 cells harboring shRNA mediated VHL knockdown assessed as induction of SMARCA2 degradation at 0.1 to 2 uM incubated for 8 hrs by Western blotting analysis; format: cell-based; settings: dose 0.1-2 µM
[31] = target: T1, von Hippel-Lindau disease tumor suppressor/SWI/SNF-related matrix-associated actin-dependent regulator of chromatin subfamily A member 2 (Homo sapiens); experiment: PROTAC activity at VHL/SMARCA2 in human A549 cells assessed as induction of SMARCA2 degradation at 1 uM pretreated with MLN4924 followed by compound addition and measured after 8 hrs by Western blotting analysis; format: cell-based
[32] = target: T1, von Hippel-Lindau disease tumor suppressor/SWI/SNF-related matrix-associated actin-dependent regulator of chromatin subfamily A member 2 (Homo sapiens); experiment: PROTAC activity at VHL/SMARCA2 in human NCI-H1299 cells assessed as induction of SMARCA2 degradation at 1 uM by Western blotting analysis; format: cell-based; settings: TDE = time-dependent effect
[33] = Stability in mouse plasma at 10 uM incubated for 24 hrs by HPLC analysis; format: ADME, cell-free
[34] = target: T1, von Hippel-Lindau disease tumor suppressor/SWI/SNF-related matrix-associated actin-dependent regulator of chromatin subfamily A member 2 (Homo sapiens); experiment: PROTAC activity at VHL/SMARCA2 in human A549 cells assessed as induction of SMARCA2 degradation at 1 uM by Western blotting analysis; format: cell-based; settings: TDE = time-dependent effect
[35] = target: T1, von Hippel-Lindau disease tumor suppressor/SWI/SNF-related matrix-associated actin-dependent regulator of chromatin subfamily A member 2 (Homo sapiens); experiment: PROTAC activity at VHL/SMARCA2 in human A549 cells assessed as induction of SMARCA2 degradation at 1 uM incubated for 8 hrs in presence of GSH scavenger NEM by Western blotting analysis; format: cell-based
[36] = Toxicity in BALB/c mouse xenografted with human A549 cells assessed as morphological change in lung at 80 mg/kg,IT(Intratumoral) administrated every four days for 16 days by hematoxylin and eosin staining based microscopic analysis; format: organism-based; settings: in vivo, other, 384 h, time 16 day
[37] = target: T1, von Hippel-Lindau disease tumor suppressor/SWI/SNF-related matrix-associated actin-dependent regulator of chromatin subfamily A member 2 (Homo sapiens); experiment: PROTAC activity at VHL/SMARCA2 in human A549 cells assessed as induction of SMARCA2 degradation at 1 uM incubated for 24 hrs by Western blotting analysis; format: cell-based
A549 [38] = experiment: Antitumor activity against human A549 cells xenografted in BALB/c mouse assessed as upregulation of Ki67 expression at 80 mg/kg,IT(Intratumoral) administrated every four days for 16 days by immunohistochemistry analysis; format: functional, organism-based; settings: time 16.0 day

For `CCN(CCN1C(=O)C=CC1=O)c1ccc2c(C)cc(=O)oc2c1`, the Activity (A549 [1]) was “Active”.
For `Cc1ncsc1-c1ccc(CNC(=O)[C@@H]2C[C@@H](O)CN2C(=O)[C@@H](NC(=O)CN2CCN(c3cc(-c4ccccc4OS(=O)(=O)c4ccc([N+](=O)[O-])cc4)nnc3N)CC2)C(C)(C)C)cc1`, the Activity [2] was “inactive”, the Activity (A549 [3]) was “Active” and the Activity (A549 [4]) was “Active”. The IC50 (A549 [5]) was 9.1 µM, the Activity (A549 [6]) was “Active” and the Activity (A549 [7]) was “Active”. For the same molecule, the Activity [8] was “inactive”, the Activity (A549 [9]) was “Active” and the Activity [10] was “Non-Toxic”. The inhibition (HuLEC-5a [11]) was “inactive”, the Stability [12] was “Stable” and the Activity (A549 [13]) was “Active”. For the same molecule, the inhibition (HuLEC-5a [14]) was “inactive”, the Activity [15] was “inactive” and the Activity [16] was “Non-Toxic”. The Activity [17] was “Non-Toxic”, the Activity [18] was “inactive” and the Activity [19] was “inactive”. For the same molecule, the inhibition (A549 [20]) was “Active”, the Activity [21] was “inactive” and the Activity (A549 [22]) was “Active”. The Activity (A549 [23]) was “Active”, the Activity [24] was “inactive” and the Activity [25] was “inactive”. For the same molecule, the Activity [26] was “Non-Toxic”, the IC50 (NCI-H1299) was 21.8 µM and the inhibition (A549 [27]) was “Active”. The Activity [28] was “Non-Toxic”, the inhibition (A549 [29]) was “Active” and the Activity [30] was “inactive”. The Activity [31] was “inactive”, the Activity [32] was “Tde” and the Stability [33] was “Stable”. For the same molecule, the Activity [34] was “Tde”, the Activity [35] was “inactive” and the Activity [36] was “Non-Toxic”. The Activity [37] was “Active” and the Activity (A549 [38]) was “Active”.

Reference: ChEMBL document CHEMBL6127029, “Glutathione-dependent degradation of SMARCA2/4 for targeted lung cancer therapy with improved selectivity” (Eur J Med Chem, 2024)
